Measured values published in the supplement of paper PMC10307832.

Legend:
Experiment in all cases: relative viability (nuclei count vs DMSO), 5 days (fraction); higher = more cells survive
KN-93 + Trametinib = compound: CN(C/C=C/C1=CC=C(C=C1)Cl)CC2=CC=CC=C2N(CCO)S(=O)(=O)C3=CC=C(C=C3)OC [KN-93] + CC(=O)Nc1cccc(-n2c(=O)n(C3CC3)c(=O)c3c(Nc4ccc(I)cc4F)n(C)c(=O)c(C)c32)c1 [Trametinib] (partner 0.02 µM)
Method in brief: (§1)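 Lung cancer cell lines, seeded in 1536-well plates, were treated the following day by pin tool with a single drug or with five library-drug doses (not always all listed) in √10 steps on top of a fixed anchor-drug dose. Cells were fixed and nuclei stained in one step after 5 days, and nuclei were counted. Relative viability is the nuclei count for treated wells divided by that for vehicle wells, reported as medians of duplicate plates.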

KN-93 + Palbociclib = compound: CN(C/C=C/C1=CC=C(C=C1)Cl)CC2=CC=CC=C2N(CCO)S(=O)(=O)C3=CC=C(C=C3)OC [KN-93] + CC(=O)c1c(C)c2cnc(Nc3ccc(N4CCNCC4)cn3)nc2n(C2CCCC2)c1=O [Palbociclib] (partner 0.5 µM)
Method in brief: as §1

KN-93 + Tozasertib = compound: CN(C/C=C/C1=CC=C(C=C1)Cl)CC2=CC=CC=C2N(CCO)S(=O)(=O)C3=CC=C(C=C3)OC [KN-93] + Cc1cc(Nc2cc(N3CCN(C)CC3)nc(Sc3ccc(NC(=O)C4CC4)cc3)n2)n[nH]1 [Tozasertib] (partner 0.1 µM)
Method in brief: as §1

KN-93 + Dasatinib = compound: CN(C/C=C/C1=CC=C(C=C1)Cl)CC2=CC=CC=C2N(CCO)S(=O)(=O)C3=CC=C(C=C3)OC [KN-93] + Cc1nc(Nc2ncc(C(=O)Nc3c(C)cccc3Cl)s2)cc(N2CCN(CCO)CC2)n1 [Dasatinib] (partner 0.075 µM)
Method in brief: as §1

KN-93 + AZD7762 = compound: CN(C/C=C/C1=CC=C(C=C1)Cl)CC2=CC=CC=C2N(CCO)S(=O)(=O)C3=CC=C(C=C3)OC [KN-93] + NC(=O)Nc1cc(-c2cccc(F)c2)sc1C(=O)N[C@H]1CCCNC1 [AZD7762] (partner 0.2 µM)
Method in brief: as §1

Cell Line | relative viability (KN-93 + Trametinib; first compound 0.08 µM) | relative viability (KN-93 + Trametinib; first compound 0.253 µM) | relative viability (KN-93 + Trametinib; first compound 2.53 µM) | relative viability (KN-93 + Trametinib; first compound 8 µM) | relative viability (KN-93 + Palbociclib; first compound 0.08 µM) | relative viability (KN-93 + Palbociclib; first compound 0.253 µM) | relative viability (KN-93 + Palbociclib; first compound 2.53 µM) | relative viability (KN-93 + Palbociclib; first compound 8 µM) | relative viability (KN-93 + Tozasertib; first compound 0.08 µM) | relative viability (KN-93 + Tozasertib; first compound 0.253 µM) | relative viability (KN-93 + Tozasertib; first compound 2.53 µM) | relative viability (KN-93 + Tozasertib; first compound 8 µM) | relative viability (KN-93 + Dasatinib; first compound 0.08 µM) | relative viability (KN-93 + Dasatinib; first compound 0.253 µM) | relative viability (KN-93 + Dasatinib; first compound 2.53 µM) | relative viability (KN-93 + Dasatinib; first compound 8 µM) | relative viability (KN-93 + AZD7762; first compound 0.08 µM) | relative viability (KN-93 + AZD7762; first compound 0.253 µM) | relative viability (KN-93 + AZD7762; first compound 2.53 µM) | relative viability (KN-93 + AZD7762; first compound 8 µM)
NCI-H1666 | 0.899 | 0.788 | 1.07 | 0.716 | 0.639 | 0.656 | 0.669 | 0.622 | 0.599 | 0.662 | 0.57 | 0.454 | 0.842 | 0.924 | 0.889 | 0.645 | 0.863 | 0.874 | 0.802 | 0.788
EMC-BAC-2 | 0.912 | 0.826 | 0.945 | 0.714 | 0.564 | 0.53 | 0.537 | 0.46 | 0.24 | 0.276 | 0.274 | 0.274 | 0.299 | 0.366 | 0.3 | 0.272 | 1.22 | 1.28 | 1.2 | 0.872
NCI-H1975 | 0.29 | 0.291 | 0.307 | 0.179 | 0.475 | 0.477 | 0.742 | 0.193 | 0.702 | 0.849 | 0.676 | 0.146 | 0.339 | 0.336 | 0.351 | 0.224 | 0.664 | 0.599 | 0.72 | 0.558
NCI-H1395 | 1.03 | 1.19 | 1.07 | 0.775 | 0.602 | 0.69 | 0.598 | 0.478 | 0.733 | 0.671 | 0.8 | 0.476 | 0.428 | 0.402 | 0.708 | 0.31 | 0.421 | 0.403 | 0.391 | 0.345
NCI-H1993 | 0.547 | 0.542 | 0.498 | 0.501 | 0.628 | 0.563 | 0.595 | 0.498 | 0.563 | 0.552 | 0.593 | 0.519 | 0.518 | 0.547 | 0.55 | 0.47 | 0.608 | 0.654 | 0.708 | 0.586
NCI-H23 | 0.331 | 0.397 | 0.432 | 0.326 | 0.516 | 0.493 | 0.618 | 0.418 | 0.327 | 0.359 | 0.439 | 0.267 | 0.64 | 0.84 | 0.818 | 0.439 | 0.286 | 0.214 | 0.235 | 0.106
HARA | 0.632 | 0.549 | 0.434 | 0.461 | 0.29 | 0.261 | 0.229 | 0.195 | 0.125 | 0.104 | 0.111 | 0.11 | 0.246 | 0.283 | 0.248 | 0.104 | 0.303 | 0.392 | 0.193 | 0.271
NCI-H1793 | 0.44 | 0.42 | 0.472 | 0.339 | 0.38 | 0.311 | 0.318 | 0.253 | 0.305 | 0.23 | 0.315 | 0.258 | 0.406 | 0.374 | 0.407 | 0.169 | 0.358 | 0.458 | 0.454 | 0.159
